Results as given in PubChem BioAssay (NCI).
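Step 1: Grow cells in 96-well plates. Step 2: Expose to compound for 48 hours at 5 concentrations. Step 3: Interpolate endpoints linearly; if unreached, use highest concentration. Here, GI50 denotes the concentration required for 50% inhibition of growth. TGI denotes the concentration required for complete inhibition of growth.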

Columns and labels:
Test in all cases: NCI tumour cell line growth inhibition, 48 h; in the data active means GI50 below about 0.43 µM; inactive means the rest
786-0 renal = system: 786-0 renal
A549 NSCLC = system: A549 NSCLC
ACHN renal = system: ACHN renal
BT-549 breast = system: BT-549 breast
CCRF-CEM leukemia = system: CCRF-CEM leukemia
COLO 205 colon = system: COLO 205 colon
DU-145 prostate = system: DU-145 prostate
EKVX NSCLC = system: EKVX NSCLC
HCC-2998 colon = system: HCC-2998 colon
HCT-116 colon = system: HCT-116 colon
HCT-15 colon = system: HCT-15 colon
HL-60(TB) leukemia = system: HL-60(TB) leukemia
HOP-62 NSCLC = system: HOP-62 NSCLC
HOP-92 NSCLC = system: HOP-92 NSCLC
HS 578T breast = system: HS 578T breast
HT29 colon = system: HT29 colon
IGROV1 ovarian = system: IGROV1 ovarian
K-562 leukemia = system: K-562 leukemia
KM12 colon = system: KM12 colon
LOX IMVI melanoma = system: LOX IMVI melanoma
M14 melanoma = system: M14 melanoma
MCF7 breast = system: MCF7 breast
MDA-MB-231 breast = system: MDA-MB-231 breast
MDA-MB-435 = system: MDA-MB-435
MOLT-4 leukemia = system: MOLT-4 leukemia
NCI-H226 lung = system: NCI-H226 lung
NCI-H23 lung = system: NCI-H23 lung
NCI-H460 lung = system: NCI-H460 lung
NCI-H522 lung = system: NCI-H522 lung
NCI/ADR-RES ovarian = system: NCI/ADR-RES ovarian
OVCAR-3 ovarian = system: OVCAR-3 ovarian
OVCAR-4 ovarian = system: OVCAR-4 ovarian
OVCAR-5 ovarian = system: OVCAR-5 ovarian
OVCAR-8 ovarian = system: OVCAR-8 ovarian
PC-3 prostate = system: PC-3 prostate
RPMI-8226 leukemia = system: RPMI-8226 leukemia
RXF 393 renal = system: RXF 393 renal
SF-268 CNS = system: SF-268 CNS
SF-295 CNS = system: SF-295 CNS
SF-539 CNS = system: SF-539 CNS
SK-MEL-28 melanoma = system: SK-MEL-28 melanoma
SK-MEL-5 melanoma = system: SK-MEL-5 melanoma
SK-OV-3 ovarian = system: SK-OV-3 ovarian
SN12C renal = system: SN12C renal
SNB-19 CNS = system: SNB-19 CNS
SNB-75 CNS = system: SNB-75 CNS
SR leukemia = system: SR leukemia
SW-620 colon = system: SW-620 colon
U251 CNS = system: U251 CNS
UACC-62 melanoma = system: UACC-62 melanoma
UO-31 renal = system: UO-31 renal
A498 renal = system: A498 renal
CAKI-1 renal = system: CAKI-1 renal
MALME-3M melanoma = system: MALME-3M melanoma
SK-MEL-2 melanoma = system: SK-MEL-2 melanoma
TK-10 renal = system: TK-10 renal
UACC-257 melanoma = system: UACC-257 melanoma

Cc1cccc(-c2cc(=O)c3cccnc3[nH]2)c1
0.191 µM: TGI (MDA-MB-435)
2.93 µM: TGI (HT29 colon)
13.2 µM: TGI (HCC-2998 colon)
7.5 µM: TGI (COLO 205 colon)
> 100 µM: TGI (786-0 renal) | TGI (A549 NSCLC) | TGI (ACHN renal) | TGI (BT-549 breast) | TGI (CCRF-CEM leukemia) | TGI (DU-145 prostate) | TGI (HCT-116 colon) | TGI (HCT-15 colon) | TGI (HOP-62 NSCLC) | TGI (HOP-92 NSCLC) | TGI (HS 578T breast) | TGI (IGROV1 ovarian) | TGI (K-562 leukemia) | TGI (LOX IMVI melanoma) | TGI (M14 melanoma) | TGI (MCF7 breast) | TGI (MDA-MB-231 breast) | TGI (MOLT-4 leukemia) | TGI (NCI-H226 lung) | TGI (NCI-H23 lung) | TGI (NCI-H460 lung) | TGI (NCI/ADR-RES ovarian) | TGI (OVCAR-3 ovarian) | TGI (OVCAR-4 ovarian) | TGI (OVCAR-5 ovarian) | TGI (PC-3 prostate) | TGI (RPMI-8226 leukemia) | TGI (RXF 393 renal) | TGI (SF-268 CNS) | TGI (SF-295 CNS) | TGI (SF-539 CNS) | TGI (SK-MEL-28 melanoma) | TGI (SK-OV-3 ovarian) | TGI (SN12C renal) | TGI (SNB-19 CNS) | TGI (SNB-75 CNS) | TGI (SR leukemia) | TGI (SW-620 colon) | TGI (U251 CNS) | TGI (UACC-62 melanoma) | TGI (UO-31 renal)
82 µM: TGI (KM12 colon)
8.25 µM: TGI (NCI-H522 lung)
52.3 µM: TGI (SK-MEL-5 melanoma)
53.6 µM: TGI (OVCAR-8 ovarian)
87.2 µM: TGI (EKVX NSCLC)
0.654 µM: TGI (HL-60(TB) leukemia)

COc1ccc2c(c1)c(-c1ccc(-c3cn(C)c4ccc(OC)cc34)s1)cn2C
> 100 µM: TGI (786-0 renal) | TGI (A498 renal) | TGI (A549 NSCLC) | TGI (ACHN renal) | TGI (BT-549 breast) | TGI (CAKI-1 renal) | TGI (COLO 205 colon) | TGI (DU-145 prostate) | TGI (EKVX NSCLC) | TGI (HCC-2998 colon) | TGI (HCT-116 colon) | TGI (HCT-15 colon) | TGI (HL-60(TB) leukemia) | TGI (HOP-62 NSCLC) | TGI (HS 578T breast) | TGI (HT29 colon) | TGI (IGROV1 ovarian) | TGI (K-562 leukemia) | TGI (KM12 colon) | TGI (LOX IMVI melanoma) | TGI (M14 melanoma) | TGI (MALME-3M melanoma) | TGI (MCF7 breast) | TGI (MDA-MB-231 breast) | TGI (MDA-MB-435) | TGI (MOLT-4 leukemia) | TGI (NCI-H226 lung) | TGI (NCI-H23 lung) | TGI (NCI-H460 lung) | TGI (NCI-H522 lung) | TGI (NCI/ADR-RES ovarian) | TGI (OVCAR-3 ovarian) | TGI (OVCAR-4 ovarian) | TGI (OVCAR-5 ovarian) | TGI (OVCAR-8 ovarian) | TGI (PC-3 prostate) | TGI (RPMI-8226 leukemia) | TGI (RXF 393 renal) | TGI (SF-268 CNS) | TGI (SF-295 CNS) | TGI (SF-539 CNS) | TGI (SK-MEL-2 melanoma) | TGI (SK-MEL-28 melanoma) | TGI (SK-MEL-5 melanoma) | TGI (SK-OV-3 ovarian) | TGI (SN12C renal) | TGI (SNB-19 CNS) | TGI (SNB-75 CNS) | TGI (SR leukemia) | TGI (SW-620 colon) | TGI (TK-10 renal) | TGI (U251 CNS) | TGI (UACC-257 melanoma) | TGI (UACC-62 melanoma) | TGI (UO-31 renal)
inactive: GI50 (786-0 renal) > 100 µM | GI50 (A498 renal) > 100 µM | GI50 (A549 NSCLC) > 100 µM | GI50 (ACHN renal) > 100 µM | GI50 (BT-549 breast) > 100 µM | GI50 (CAKI-1 renal) > 100 µM | GI50 (COLO 205 colon) > 100 µM | GI50 (DU-145 prostate) > 100 µM | GI50 (EKVX NSCLC) > 100 µM | GI50 (HCC-2998 colon) > 100 µM | GI50 (HCT-116 colon) > 100 µM | GI50 (HCT-15 colon) > 100 µM | GI50 (HL-60(TB) leukemia) > 100 µM | GI50 (HOP-62 NSCLC) > 100 µM | GI50 (HS 578T breast) > 100 µM | GI50 (HT29 colon) > 100 µM | GI50 (IGROV1 ovarian) > 100 µM | GI50 (K-562 leukemia) > 100 µM | GI50 (KM12 colon) > 100 µM | GI50 (LOX IMVI melanoma) > 100 µM | GI50 (M14 melanoma) > 100 µM | GI50 (MALME-3M melanoma) > 100 µM | GI50 (MCF7 breast) > 100 µM | GI50 (MDA-MB-231 breast) > 100 µM | GI50 (MDA-MB-435) > 100 µM | GI50 (MOLT-4 leukemia) > 100 µM | GI50 (NCI-H226 lung) > 100 µM | GI50 (NCI-H23 lung) > 100 µM | GI50 (NCI-H460 lung) > 100 µM | GI50 (NCI-H522 lung) > 100 µM | GI50 (NCI/ADR-RES ovarian) > 100 µM | GI50 (OVCAR-3 ovarian) > 100 µM | GI50 (OVCAR-4 ovarian) 90.2 µM | GI50 (OVCAR-5 ovarian) > 100 µM | GI50 (OVCAR-8 ovarian) > 100 µM | GI50 (PC-3 prostate) > 100 µM | GI50 (RPMI-8226 leukemia) > 100 µM | GI50 (RXF 393 renal) > 100 µM | GI50 (SF-268 CNS) > 100 µM | GI50 (SF-295 CNS) > 100 µM | GI50 (SF-539 CNS) > 100 µM | GI50 (SK-MEL-2 melanoma) > 100 µM | GI50 (SK-MEL-28 melanoma) > 100 µM | GI50 (SK-MEL-5 melanoma) > 100 µM | GI50 (SK-OV-3 ovarian) > 100 µM | GI50 (SN12C renal) > 100 µM | GI50 (SNB-19 CNS) > 100 µM | GI50 (SNB-75 CNS) 49.4 µM | GI50 (SR leukemia) > 100 µM | GI50 (SW-620 colon) > 100 µM | GI50 (TK-10 renal) > 100 µM | GI50 (U251 CNS) > 100 µM | GI50 (UACC-257 melanoma) > 100 µM | GI50 (UACC-62 melanoma) > 100 µM | GI50 (UO-31 renal) > 100 µM
